Among the data in PubChem BioAssay (NCI) are GI50 and TGI values, retold here.

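Tested at 5 concentrations; 48 h exposure; 96-well plates; endpoints linearly interpolated, else capped at highest concentration. At the GI50, growth is halved. At the TGI there is no net growth.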

Holding throughout (experiment): inhibition of tumour cell growth, NCI panel, 48 h
Assay [1] relates to HT29 colon.
Assay [2] concerns NCI-H23 lung.
Assay [3] has as its system NCI-H460 lung.
Assay [4] concerns OVCAR-4 ovarian.
Assay [5] deals with SF-539 CNS.
Assay [6] deals with SK-MEL-2 melanoma.
Assay [7] relates to SK-MEL-28 melanoma.
Assay [8] deals with SW-620 colon.
The test system of assay [9] is UACC-257 melanoma.

Take `CC([O-])=C1C(=O)c2ccccc2C1=O.CC([O-])=C1C(=O)c2ccccc2C1=O.CC[O-].CC[O-].[Ti+4]`: the GI50 in assay [1], in assay [2], in assay [3], in assay [4], in assay [5] and in assay [6] was above 100 µM each time. The GI50 in assay [7], in assay [8] and in assay [9] was above 100 µM each time. The TGI in [1], in [2], in assay [3], in assay [4], in [5] and in [6] was above 100 µM each time. In addition, the TGI in assay [7], in assay [8] and in assay [9] was above 100 µM throughout.

Regarding `O=C1OC(=O)C2C3C=CC(C12)C1C2C=CC2C31` (stereo unspecified), the TGI in assay [1], in [2], in [3], in [4], in [5] and in assay [6] was above 100 µM each time. Further, the TGI in assay [7], in assay [8] and in assay [9] was above 100 µM each time.

Regarding `O=c1c2cc3c(cc2c2cccc4c2n1CCC4)OCO3`, the TGI in [1], in [2], in [3], in [4], in assay [5] and in assay [6] was above 100 µM in each case. Moreover, the TGI in [7], in [8] and in assay [9] was above 100 µM throughout.

Turning to `COCCOCCOCCOc1cccc2c1C(=O)c1cccc(OCCOCCOCCOC)c1C2=O`, the TGI in assay [1], in assay [2], in assay [3], in assay [4], in assay [5] and in assay [7] was above 100 µM each time. Further, the TGI in [8] and in [9] was above 100 µM each time.

Regarding `O=C(NCCCl)SCCO`, the TGI in assay [1], in assay [2], in assay [3], in assay [4], in assay [5] and in assay [6] was above 100 µM throughout. In addition, the TGI in assay [7], in [8] and in [9] was above 100 µM throughout.

As to `NC(=O)NC1C(C(=O)O)N(Cc2ccccc2)C(=O)N1Cc1ccccc1` (stereo unspecified), the TGI in assay [1], in assay [2], in assay [3], in assay [4], in assay [5] and in assay [6] was above 100 µM in each case. Moreover, the TGI in [7], in assay [8] and in assay [9] was above 100 µM each time.

In the case of `COc1cccc(N2C(=O)C3C4C=C5c6ccccc6N(c6ccccc6)C5(C3C2=O)[C@H]2C(=O)N(c3cccc(OC)c3)C(=O)[C@@H]42)c1` (stereo partly specified), the TGI in assay [1], in assay [2], in [3], in assay [4], in assay [5] and in assay [6] was above 100 µM throughout. The TGI in [8] and in [9] was above 100 µM in each case.

On to `COc1cc2ccnc3c(=C(SC)SC)c(=O)c(c1OC)c23`, for which the TGI is 26.2 µM in assay [1]; above 100 µM in assay [3]; 30.2 µM in assay [4]; 33 µM in assay [5]; 38.3 µM in assay [6]; 26 µM in [7]. Also, the TGI in assay [8] worked out at 31 µM; in [9] it was 30.8 µM.

With `COc1ccc(-c2csc(NC(=O)CN3CCN(c4cc5c(cc4F)c(=O)c(C(=O)O)cn5C4CC4)CC3)n2)cc1`, the GI50 is 3.49 µM in [1]; 2.9 µM in assay [2]; 3.18 µM in assay [3]; 3.61 µM in assay [5]; 2.58 µM in assay [6]; 3.72 µM in assay [7]. Moreover, the GI50 in assay [8] is 3.9 µM. For the same compound, the TGI in [1] was above 100 µM; in [2], above 100 µM; in assay [3] it was above 100 µM; in [5], above 100 µM; in assay [6], 8.28 µM; in assay [7], above 100 µM. In addition, in assay [8], the TGI was above 100 µM.

In the case of `COc1ccc(C(=O)C#Cc2c[nH]c(=O)[nH]c2=O)cc1`, the TGI in assay [1] was 28 µM; in [2], 32.8 µM; in [3], 73.9 µM; in assay [4], 33.1 µM; in assay [5] it was 19.3 µM; in [6], 21.4 µM. In addition, the TGI worked out at 30.1 µM in assay [7], 26.7 µM in [8] and 27.4 µM in assay [9].

In the case of `N#Cc1cccc(C=NC23CC4CC(CC(C4)C2)C3)c1`, the TGI in [1], in assay [2], in assay [3], in assay [4], in assay [5] and in assay [6] was above 100 µM throughout. For the same compound, the TGI in assay [7], in assay [8] and in assay [9] was above 100 µM throughout.

On to `C=C(C(=C)P(=S)(C(C)C)C(C)C)P(=S)(C(C)C)C(C)C`, for which the TGI in [1], in [2], in assay [3], in assay [4], in assay [5] and in assay [7] was above 100 µM in each case. Besides, the TGI in assay [8] and in [9] was above 100 µM each time.

Regarding `COc1cc(C(C)O)c[n+](CCC2CNc3ccccc32)c1` (stereo unspecified), the TGI in assay [1], in assay [2], in assay [3], in [4], in [5] and in assay [6] was above 100 µM throughout. The TGI in assay [8] and in assay [9] was above 100 µM throughout.
